# Reference: PMC11079024, “Identification of a family of species-selective complex I inhibitors as potential anthelmintics” (Nature Communications, 2024)
# Target: C. elegans (N2) complex I (NADH:ubiquinone oxidoreductase) (Caenorhabditis elegans, UniProt P24887+Q93873+Q94360)
# Test: biochemical
# Assay type: biochemical
# Settings: Dose 0.0001 µM; read-out: C. elegans mitochondrial complex I activity
# Outline: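 Mitochondria from liquid-cultured adults were freeze-thawed thrice before the 15-min DCIP-coupled NADH oxidation read.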
# Sequence of C. elegans (N2) complex I (NADH:ubiquinone oxidoreductase) (Q94360 17-199): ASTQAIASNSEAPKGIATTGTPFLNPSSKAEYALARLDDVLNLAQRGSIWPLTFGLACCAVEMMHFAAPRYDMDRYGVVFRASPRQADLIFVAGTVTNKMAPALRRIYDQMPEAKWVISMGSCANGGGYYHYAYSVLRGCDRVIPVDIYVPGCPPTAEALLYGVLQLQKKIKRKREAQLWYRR
# Sequence of C. elegans (N2) complex I (NADH:ubiquinone oxidoreductase) (P24887 whole entry): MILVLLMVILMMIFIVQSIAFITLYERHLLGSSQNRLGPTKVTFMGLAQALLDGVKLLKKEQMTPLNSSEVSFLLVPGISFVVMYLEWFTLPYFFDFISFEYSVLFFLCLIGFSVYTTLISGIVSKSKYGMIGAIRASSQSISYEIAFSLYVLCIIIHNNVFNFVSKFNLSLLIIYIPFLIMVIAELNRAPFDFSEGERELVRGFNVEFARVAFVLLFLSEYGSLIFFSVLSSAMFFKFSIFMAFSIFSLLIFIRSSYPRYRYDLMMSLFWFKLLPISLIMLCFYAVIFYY
# Sequence of C. elegans (N2) complex I (NADH:ubiquinone oxidoreductase) (Q93873 31-482): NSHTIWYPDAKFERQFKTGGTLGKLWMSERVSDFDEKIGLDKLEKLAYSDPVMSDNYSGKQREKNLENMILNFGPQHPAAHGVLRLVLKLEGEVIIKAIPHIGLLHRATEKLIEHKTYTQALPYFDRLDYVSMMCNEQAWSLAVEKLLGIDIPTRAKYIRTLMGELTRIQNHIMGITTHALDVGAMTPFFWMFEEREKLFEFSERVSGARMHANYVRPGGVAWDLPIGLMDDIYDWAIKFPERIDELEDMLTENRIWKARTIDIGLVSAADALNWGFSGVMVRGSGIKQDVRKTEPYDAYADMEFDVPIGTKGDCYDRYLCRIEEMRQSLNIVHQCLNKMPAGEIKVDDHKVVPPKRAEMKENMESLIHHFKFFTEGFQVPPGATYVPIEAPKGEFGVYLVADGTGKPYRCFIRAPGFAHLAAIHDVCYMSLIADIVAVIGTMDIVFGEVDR
row,Compound,activity at 0.0001 µM
1,Clc1ccc(Cn2cnc3ccccc32)cc1Cl [Compound 5571325],90.4%
2,Brc1ccccc1OCCCCn1cnc2ccccc21 [Compound 7924576],82.9%
3,Cc1ccc(SCCCCn2cnc3ccccc32)cc1 [Compound 7925333],91.6%

# Same assay, conditions: Dose 0.0005 µM; read-out: C. elegans mitochondrial complex I activity
row,Compound,activity at 0.0005 µM
1,Clc1ccc(Cn2cnc3ccccc32)cc1Cl [Compound 5571325],92.7%
2,Brc1ccccc1OCCCCn1cnc2ccccc21 [Compound 7924576],89.9%
3,Cc1ccc(SCCCCn2cnc3ccccc32)cc1 [Compound 7925333],94.2%

# Same assay, conditions: Dose 0.001 µM; read-out: C. elegans mitochondrial complex I activity
row,Compound,activity at 0.001 µM
1,Clc1ccc(Cn2cnc3ccccc32)cc1Cl [Compound 5571325],95.2%
2,Brc1ccccc1OCCCCn1cnc2ccccc21 [Compound 7924576],81.8%
3,Cc1ccc(SCCCCn2cnc3ccccc32)cc1 [Compound 7925333],101%

# Same assay, conditions: Dose 0.0025 µM; read-out: C. elegans mitochondrial complex I activity
row,Compound,activity at 0.0025 µM
1,Clc1ccc(Cn2cnc3ccccc32)cc1Cl [Compound 5571325],95.4%
2,Brc1ccccc1OCCCCn1cnc2ccccc21 [Compound 7924576],93.2%
3,Cc1ccc(SCCCCn2cnc3ccccc32)cc1 [Compound 7925333],95.1%

# Same assay, conditions: Dose 0.005 µM; read-out: C. elegans mitochondrial complex I activity
row,Compound,activity at 0.005 µM
1,Clc1ccc(Cn2cnc3ccccc32)cc1Cl [Compound 5571325],92.8%
2,Brc1ccccc1OCCCCn1cnc2ccccc21 [Compound 7924576],91.6%
3,Cc1ccc(SCCCCn2cnc3ccccc32)cc1 [Compound 7925333],100%

# Same assay, conditions: Dose 0.013 µM; read-out: C. elegans mitochondrial complex I activity
row,Compound,activity at 0.013 µM
1,Clc1ccc(Cn2cnc3ccccc32)cc1Cl [Compound 5571325],92.4%
2,Brc1ccccc1OCCCCn1cnc2ccccc21 [Compound 7924576],87.2%
3,Cc1ccc(SCCCCn2cnc3ccccc32)cc1 [Compound 7925333],91.2%

# Same assay, conditions: Dose 0.025 µM; read-out: C. elegans mitochondrial complex I activity
row,Compound,activity at 0.025 µM
1,Clc1ccc(Cn2cnc3ccccc32)cc1Cl [Compound 5571325],92.1%
2,Brc1ccccc1OCCCCn1cnc2ccccc21 [Compound 7924576],76%
3,Cc1ccc(SCCCCn2cnc3ccccc32)cc1 [Compound 7925333],93.7%

# Same assay, conditions: Dose 0.063 µM; read-out: C. elegans mitochondrial complex I activity
row,Compound,activity at 0.063 µM
1,Clc1ccc(Cn2cnc3ccccc32)cc1Cl [Compound 5571325],90.9%
2,Brc1ccccc1OCCCCn1cnc2ccccc21 [Compound 7924576],73.6%
3,Cc1ccc(SCCCCn2cnc3ccccc32)cc1 [Compound 7925333],96.6%

# Same assay, conditions: Dose 0.125 µM; read-out: C. elegans mitochondrial complex I activity
row,Compound,activity at 0.125 µM
1,Clc1ccc(Cn2cnc3ccccc32)cc1Cl [Compound 5571325],87.7%
2,Brc1ccccc1OCCCCn1cnc2ccccc21 [Compound 7924576],67.2%
3,Cc1ccc(SCCCCn2cnc3ccccc32)cc1 [Compound 7925333],81%

# Same assay, conditions: Dose 0.313 µM; read-out: C. elegans mitochondrial complex I activity
row,Compound,activity at 0.313 µM
1,Clc1ccc(Cn2cnc3ccccc32)cc1Cl [Compound 5571325],83.6%
2,Brc1ccccc1OCCCCn1cnc2ccccc21 [Compound 7924576],52.4%
3,Cc1ccc(SCCCCn2cnc3ccccc32)cc1 [Compound 7925333],64.2%

# Same assay, conditions: Dose 0.625 µM; read-out: C. elegans mitochondrial complex I activity
row,Compound,activity at 0.625 µM
1,Clc1ccc(Cn2cnc3ccccc32)cc1Cl [Compound 5571325],83%
2,Brc1ccccc1OCCCCn1cnc2ccccc21 [Compound 7924576],40.5%
3,Cc1ccc(SCCCCn2cnc3ccccc32)cc1 [Compound 7925333],65.6%

# Same assay, conditions: Dose 1.5 µM; read-out: C. elegans mitochondrial complex I activity
row,Compound,activity at 1.5 µM
1,Clc1ccc(Cn2cnc3ccccc32)cc1Cl [Compound 5571325],69.7%
2,Brc1ccccc1OCCCCn1cnc2ccccc21 [Compound 7924576],21.3%
3,Cc1ccc(SCCCCn2cnc3ccccc32)cc1 [Compound 7925333],44%

# Same assay, conditions: Dose 3 µM; read-out: C. elegans mitochondrial complex I activity
row,Compound,activity at 3 µM
1,Clc1ccc(Cn2cnc3ccccc32)cc1Cl [Compound 5571325],57.2%
2,Brc1ccccc1OCCCCn1cnc2ccccc21 [Compound 7924576],12.5%
3,Cc1ccc(SCCCCn2cnc3ccccc32)cc1 [Compound 7925333],28.6%

# Same assay, conditions: Dose 15 µM; read-out: C. elegans mitochondrial complex I activity
row,Compound,activity at 15 µM
1,Clc1ccc(Cn2cnc3ccccc32)cc1Cl [Compound 5571325],19%
2,Brc1ccccc1OCCCCn1cnc2ccccc21 [Compound 7924576],10.2%
3,Cc1ccc(SCCCCn2cnc3ccccc32)cc1 [Compound 7925333],10.5%

# Same assay, conditions: Dose 37.5 µM; read-out: C. elegans mitochondrial complex I activity
row,Compound,activity at 37.5 µM
1,Clc1ccc(Cn2cnc3ccccc32)cc1Cl [Compound 5571325],8.47%
2,Cc1ccc(SCCCCn2cnc3ccccc32)cc1 [Compound 7925333],5.81%

# Same assay, conditions: Dose 75 µM; read-out: C. elegans mitochondrial complex I activity
row,Compound,activity at 75 µM
1,Clc1ccc(Cn2cnc3ccccc32)cc1Cl [Compound 5571325],7.02%
2,Brc1ccccc1OCCCCn1cnc2ccccc21 [Compound 7924576],5.45%
3,Cc1ccc(SCCCCn2cnc3ccccc32)cc1 [Compound 7925333],7.08%

# Same assay, conditions: in vitro complex I dose response on C. elegans mitochondria; average of at least two biological replicates; fit in R (DRC); read-out: IC50 C. elegans complex I
row,Compound,IC50
1,Clc1ccc(Cn2cnc3ccccc32)cc1Cl [Compound 5571325],4.38 µM
2,Cc1ccc(SCCCCn2cnc3ccccc32)cc1 [Compound 7925333],1.04 µM

# Same assay, conditions: log10 of IC50 in µM; C. elegans mitochondria
row,Compound,Log IC50 C. elegans complex I
1,Clc1ccc(Cn2cnc3ccccc32)cc1Cl [Compound 5571325],0.64 µM
2,Brc1ccccc1OCCCCn1cnc2ccccc21 [Compound 7924576],-0.37 µM
3,Cc1ccc(SCCCCn2cnc3ccccc32)cc1 [Compound 7925333],0.017 µM

# Same assay, conditions: wild-type (N2) mitochondria; read-out: C. elegans Complex I IC50
row,Compound,IC50
1,Clc1ccc(Cn2cnc3ccccc32)cc1Cl [Compound 5571325],4.38 µM
2,Cc1ccc(SCCCCn2cnc3ccccc32)cc1 [Compound 7925333],1.04 µM

# Same assay, conditions: wild-type C. elegans mitochondria; estimated from fitted dose-response curves; read-out: C. elegans Complex I IC50
row,Compound,IC50
1,Brc1ccccc1OCCCCn1cnc2ccccc21 [Compound 7924576],0.43 µM
2,Cc1ccc(SCCCCn2cnc3ccccc32)cc1 [Compound 7925333],1.04 µM

# Same assay, conditions: wild-type C. elegans mitochondria; read-out: C. elegans Complex I IC50
row,Compound,IC50
1,Clc1ccc(Cn2cnc3ccccc32)cc1Cl [Compound 5571325],4.38 µM

# Test system: L1 wild-type C. elegans
# Test: not given
# Settings: 50 μM; […]; KCN survival assay; hit = relative motility below 0.25
row,Compound,"Screen ""Hit"""
1,Clc1ccc(Cn2cnc3ccccc32)cc1Cl [Compound 5571325],Y (hits were identified as compounds that reduced relative motility below 0.25 (75% reduction))
2,Brc1ccccc1OCCCCn1cnc2ccccc21 [Compound 7924576],Y (hits were identified as compounds that reduced relative motility below 0.25 (75% reduction))
3,Cc1ccc(SCCCCn2cnc3ccccc32)cc1 [Compound 7925333],Y (hits were identified as compounds that reduced relative motility below 0.25 (75% reduction))

# Same assay, conditions: Dose 0.2 µM; mean of at least three biological replicates
row,Compound,C. elegans KCN Survival
1,Clc1ccc(Cn2cnc3ccccc32)cc1Cl [Compound 5571325],1.000
2,Cc1ccc(SCCCCn2cnc3ccccc32)cc1 [Compound 7925333],0.989

# Same assay, conditions: Dose 0.39 µM
row,Compound,C. elegans KCN Survival
1,Clc1ccc(Cn2cnc3ccccc32)cc1Cl [Compound 5571325],0.996
2,Brc1ccccc1OCCCCn1cnc2ccccc21 [Compound 7924576],0.969
3,Cc1ccc(SCCCCn2cnc3ccccc32)cc1 [Compound 7925333],1.001

# Same assay, conditions: Dose 1.56 µM
row,Compound,C. elegans KCN Survival
1,Clc1ccc(Cn2cnc3ccccc32)cc1Cl [Compound 5571325],1.008
2,Brc1ccccc1OCCCCn1cnc2ccccc21 [Compound 7924576],0.940
3,Cc1ccc(SCCCCn2cnc3ccccc32)cc1 [Compound 7925333],0.933

# Same assay, conditions: Dose 3.13 µM
row,Compound,C. elegans KCN Survival
1,Clc1ccc(Cn2cnc3ccccc32)cc1Cl [Compound 5571325],0.957
2,Brc1ccccc1OCCCCn1cnc2ccccc21 [Compound 7924576],0.862
3,Cc1ccc(SCCCCn2cnc3ccccc32)cc1 [Compound 7925333],0.876

# Same assay, conditions: Dose 6.25 µM
row,Compound,C. elegans KCN Survival
1,Clc1ccc(Cn2cnc3ccccc32)cc1Cl [Compound 5571325],0.819
2,Brc1ccccc1OCCCCn1cnc2ccccc21 [Compound 7924576],0.585
3,Cc1ccc(SCCCCn2cnc3ccccc32)cc1 [Compound 7925333],0.745

# Same assay, conditions: Dose 12.5 µM
row,Compound,C. elegans KCN Survival
1,Clc1ccc(Cn2cnc3ccccc32)cc1Cl [Compound 5571325],0.586
2,Brc1ccccc1OCCCCn1cnc2ccccc21 [Compound 7924576],0.135
3,Cc1ccc(SCCCCn2cnc3ccccc32)cc1 [Compound 7925333],0.174

# Same assay, conditions: Dose 25 µM
row,Compound,C. elegans KCN Survival
1,Clc1ccc(Cn2cnc3ccccc32)cc1Cl [Compound 5571325],0.133
2,Brc1ccccc1OCCCCn1cnc2ccccc21 [Compound 7924576],0.138
3,Cc1ccc(SCCCCn2cnc3ccccc32)cc1 [Compound 7925333],0.119

# Same assay, conditions: Dose 50 µM
row,Compound,C. elegans KCN Survival
1,Clc1ccc(Cn2cnc3ccccc32)cc1Cl [Compound 5571325],0.122
2,Brc1ccccc1OCCCCn1cnc2ccccc21 [Compound 7924576],0.159
3,Cc1ccc(SCCCCn2cnc3ccccc32)cc1 [Compound 7925333],0.151

# Same assay, conditions: Dose 100 µM
row,Compound,C. elegans KCN Survival
1,Clc1ccc(Cn2cnc3ccccc32)cc1Cl [Compound 5571325],0.206
2,Brc1ccccc1OCCCCn1cnc2ccccc21 [Compound 7924576],0.208
3,Cc1ccc(SCCCCn2cnc3ccccc32)cc1 [Compound 7925333],0.185

# Test system: not listed separately
# Test: in vitro
# Settings: human, HEK293 Cell Viability Assay LC50, HEK293 cells; estimated from fitted dose-response curves
row,Compound,CC50 at 2 days
1,Clc1ccc(Cn2cnc3ccccc32)cc1Cl [Compound 5571325],86.4 µM

# Same assay, conditions: human, HEK293 Cell Viability Assay LC50, HEK293 cells; estimated from fitted dose-response curves; mean of at least two biological replicates
row,Compound,CC50 at 2 days
1,Brc1ccccc1OCCCCn1cnc2ccccc21 [Compound 7924576],44.3 µM
2,Cc1ccc(SCCCCn2cnc3ccccc32)cc1 [Compound 7925333],75.1 µM

# Same assay, conditions: human, HEK293 cells (Flp-In-293), HEK293 viability, Dose 3.13 µM
row,Compound,"viability at 2 days, 3.13 µM"
1,Clc1ccc(Cn2cnc3ccccc32)cc1Cl [Compound 5571325],73.5%
2,Brc1ccccc1OCCCCn1cnc2ccccc21 [Compound 7924576],96.3%
3,Cc1ccc(SCCCCn2cnc3ccccc32)cc1 [Compound 7925333],88.6%

# Same assay, conditions: human, HEK293 cells (Flp-In-293), HEK293 viability, Dose 6.25 µM
row,Compound,"viability at 2 days, 6.25 µM"
1,Clc1ccc(Cn2cnc3ccccc32)cc1Cl [Compound 5571325],52.9%
2,Brc1ccccc1OCCCCn1cnc2ccccc21 [Compound 7924576],98.1%
3,Cc1ccc(SCCCCn2cnc3ccccc32)cc1 [Compound 7925333],97%

# Same assay, conditions: human, HEK293 cells (Flp-In-293), HEK293 viability, Dose 12.5 µM
row,Compound,"viability at 2 days, 12.5 µM"
1,Clc1ccc(Cn2cnc3ccccc32)cc1Cl [Compound 5571325],49.8%
2,Cc1ccc(SCCCCn2cnc3ccccc32)cc1 [Compound 7925333],99.2%

# Same assay, conditions: human, HEK293 cells (Flp-In-293), HEK293 viability, Dose 25 µM
row,Compound,"viability at 2 days, 25 µM"
1,Clc1ccc(Cn2cnc3ccccc32)cc1Cl [Compound 5571325],60.7%
2,Brc1ccccc1OCCCCn1cnc2ccccc21 [Compound 7924576],82.8%
3,Cc1ccc(SCCCCn2cnc3ccccc32)cc1 [Compound 7925333],100%

# Same assay, conditions: human, HEK293 cells (Flp-In-293), HEK293 viability, Dose 50 µM
row,Compound,"viability at 2 days, 50 µM"
1,Clc1ccc(Cn2cnc3ccccc32)cc1Cl [Compound 5571325],57.7%
2,Brc1ccccc1OCCCCn1cnc2ccccc21 [Compound 7924576],40.2%
3,Cc1ccc(SCCCCn2cnc3ccccc32)cc1 [Compound 7925333],77.2%

# Same assay, conditions: human, HEK293 cells (Flp-In-293), HEK293 viability, Dose 100 µM
row,Compound,"viability at 2 days, 100 µM"
1,Clc1ccc(Cn2cnc3ccccc32)cc1Cl [Compound 5571325],16.3%
2,Brc1ccccc1OCCCCn1cnc2ccccc21 [Compound 7924576],6.9%
3,Cc1ccc(SCCCCn2cnc3ccccc32)cc1 [Compound 7925333],25.7%
